Data published in US20030162818A1, “Acylsulfonamide derivative” (AJINOMOTO CO. INC., priority 1997, published 2003).

Tests used:
HepG2 cells = assay: Measurement of intracellular fatty acid synthesis inhibition activity (FA biosynthesis from [14C]-glucose); type: cell-based; conditions: Homo sapiens, 3.0 × 10^−5 M compound, 3 hours culture with [14C]-glucose
Method: Measurement of Intracellular Fatty Acid Synthesis Inhibition Activity (FA Biosynthesis Inhibition Activity)
Each of the compounds produced in the Examples was dissolved in DMSO and added to an experimental culture medium (DMEM; 0.05 μg/ml insulin, 0.1 mg/ml glucose and 18.5 kBq/ml [^14C]-glucose). The HepG2 cells were adjusted to a density of 0.75×10^6 cells/ml, inoculated into a 12 well plate in an amount of 1 ml/well and cultured overnight at 37° C. in an atmosphere of 5% CO2 (culture medium: DMEM, […] and 10% FBS), and the resulting cells were washed twice with PBS(−) buffer, mixed with the experimental culture medium in an amount of 0.5 ml/well and then cultured at 37° C. for 3 hours in an atmosphere of 5% CO2. After the culturing, the cells were washed twice with ice-cooled PBS(−) buffer and peeled off, and lipids were extracted from the resulting cells with a lipid extraction solution (chloroform:methanol=2:1). The extract was mixed with 2.5 ml of ethanol and 0.1 ml of 33% potassium hydroxide and incubated at 70° C. for 1 hour. Lipids were again extracted from the reaction mixture, and the extract was applied to a silica gel thin layer plate. This was developed with a developing solution (hexane:diethyl ether:acetic acid=80:20:1) and then the fatty acid iodine-coloring part was collected to measure its radioactivity using a liquid scintillation counter. The inhibition activity % (3.0×10^−5 M) of each compound was calculated.

[1] = molecular target: T1, acetyl-CoA carboxylase (ACC) (Rattus norvegicus, UniProt P11497); assay: Measurement of ACC inhibition activity (14C-bicarbonate incorporation, ACC purified from rat liver); type: biochemical; conditions: 5.6 × 10^−6 M compound; ACC purified from SD rat liver
T1 construct: subjected to decapitation and bloodletting under ether anesthesia to quickly take out the liver; from tissue; host or cells: rat liver (male SD rat, fasted then fed a high-sucrose feed)
Method: After 2 days of fasting, a male SD rat of 12 weeks of age was allowed to feed on a high sucrose feed (67% sucrose, 17.1% casein, 9.8% cellulose, 5% sodium chloride, 0.1% choline chloride and 1% vitamins) for 2 days and then subjected to decapitation and bloodletting under ether anesthesia to quickly take out the liver. The thus obtained liver was sliced in an ice-cooled buffer A (225 mM mannitol, 75 mM sucrose, 10 mM Tris/HCl (pH 7.5), 0.05 mM EDTA-2Na, 5 mM potassium citrate, 2.5 mM MnCl2, 10 mg/l aprotinin, 10 mg/l leupeptin and 10 mg/l antitrypsin) and then, after removal of moisture, adjusted to 5 ml/g by adding the buffer A and homogenized for 4 minutes using Polytron homogenizer. This was centrifuged for 10 minutes at 1,000 g and then the resulting supernatant was subjected to 10 minutes of high speed centrifugation at 17,000 g.
Ammonium sulfate was added to the thus obtained supernatant to a final concentration of 35%, and the mixture was stirred for 45 minutes and then subjected to 10 minutes of high speed centrifugation at 17,000 g. The thus obtained precipitate was mixed with 100 ml of a buffer B (100 mM Tris/HCl (pH 7.5), 0.5 M NaCl, 1 mM EDTA-2Na, 0.1 mM DTT, 10% glycerol, 10 mg/l aprotinin, 10 mg/l leupeptin and 10 mg/l antitrypsin) and subjected to 20 minutes of ultracentrifugation at 40,000, and the resulting supernatant was dialyzed overnight against 150 volumes of a buffer C (100 mM Tris/HCl (pH 7.5), 0.5 M NaCl, 1 mM EDTA-2Na, 0.1 mM DTT and 10% glycerol) and then filtered through a 5 μm filter. The filtrate was applied to a biotin affinity column, washed with the buffer B and then eluted with the buffer B supplemented with 5 mM biotin.
2. Measurement of ACC Inhibition Activity
Each of the compounds produced in the Examples was dissolved in DMSO, and the solution was put into a glass vial, mixed with 250 μl of an ACC-containing reagent 1 (40 mM Tris/HCl (pH 7.5), 40 mM MgCl2, 40 mM sodium citrate, 2 mM DTT and 100 μg/ml fatty acid-free BSA),incubated at 37° C. for 30 minutes in a thermostatic chamber, cooled with ice, mixed with 250 μl of a reagent 2 (40 mM Tris/HCl (pH 7.5), 2 mM DTT, 8 mM ATP and 0.5 mM acetyl-CoA) containing 74 kBq of NaH^14CO3, again incubated at 37° C. for 10 minutes in a thermostatic chamber and then mixed with 0.1 ml of 1 N HCl to terminate the reaction. After complete removal of moisture in the glass vial under a reduced pressure, an emulsified scintillator (Cleasol I) was added to the glass vial, and the ^14C radioactivity was measured using a liquid scintillation counter. […]
Inhibition activity ratio (%)=(1−radioactivity when a drug to be tested is added/radioactivity when the drug to be rested is not added)×100

Row | SMILES | inhibition at 30 µM (HepG2 cells) [%] | melting point [°C] | inhibition at 5.6 µM [1] [%]
1 | O=C(Nc1ccccc1S(=O)(=O)NC(=O)c1ccccc1)c1cccc(OCc2ccccc2)c1 [Example 2, N-[2-(3-Benzyloxybenzamido)benzenesulfonyl]benzamide] | 43.8 | 201 to 202 | 60.7
2 | CCCCCCCCCC(=O)NS(=O)(=O)c1ccccc1NC(=O)c1cccc(OCc2ccccc2)c1 [Example 9, N-[2-(3-Benzyloxybenzamido)benzenesulfonyl]decanamide] | 86.8 | 85 to 86 | 65
3 | CC(C)(C)c1ccc(COc2cccc(C(=O)Nc3ccccc3S(=O)(=O)NC(=O)/C=C/c3ccccc3)c2)cc1 [Example 13, N-[2-[3-(4-t-Butylbenzyloxy)benzamido]benzenesulfonyl]cinnamamide] | 38.1 | 110 to 111 | 79.5
4 | CCCCC/C=C\C/C=C\CCCCCCCC(=O)NS(=O)(=O)c1ccccc1NC(=O)c1cccc(OCc2ccccc2)c1 [Example 15, N-[2-(3-Benzyloxybenzamido)benzenesulfonyl]linolamide] | 30.6 |  | 84.8
5 | CCCCCCCCCC(=O)NS(=O)(=O)c1ccccc1NC(=O)c1ccc([N+](=O)[O-])c(OCc2ccccc2)c1 [Example 16, N-[2-(3-Benzyloxy-4-nitrobenzamido)benzenesulfonyl]decanamide] | 94.3 | 129 to 130 | 79.9
6 | CCCCCCCCCC(=O)NS(=O)(=O)c1ccccc1NC(=O)c1cccc(OCc2ccc(Cl)cc2)c1 [Example 19, N-[2-[3-(4-Chlorobenzyloxy)benzamido]benzenesulfonyl]decanamide] | 90.5 | 159 to 161 | 83.3
7 | CCCCCCCCCC(=O)NS(=O)(=O)c1ccccc1NC(=O)c1cccc(OCc2ccc([N+](=O)[O-])cc2)c1 [Example 22, N-[2-[3-(4-Nitrobenzyloxy)benzamido]benzenesulfonyl]decananide] | 95.2 | 145 to 148 | 88.4
8 | CCCCCCCCCC(=O)NS(=O)(=O)c1ccccc1NC(=O)c1cccc(OCc2ccc(OC)cc2)c1 [Example 25, N-[2-[3-(4-methoxybenzyloxy)benzamido]benzenesulfonyl]decanamide] | 92 | 148 to 149 | 81.6
9 | CCCCCCCCCC(=O)NS(=O)(=O)c1ccccc1NC(=O)c1cccc(OCC2CCCCC2)c1 [Example 28, N-[2-(3-Cyclohexylmethoxybenzamido)benzenesulfonyl]decanamide] | 84.6 | 124 to 127 | 89.4
10 | CCCCCC(=O)NS(=O)(=O)c1ccccc1NC(=O)c1cccc(OCc2ccc(C(C)(C)C)cc2)c1 [Example 30, N-[2-[3-(4-t-Butylbenzyloxy)benzamido]benzenesulfonyl]hexanamide] | 87.1 | 163 to 164 | 53.2
11 | CCCCCCCCCC(=O)NS(=O)(=O)c1ccccc1NC(=O)c1cccc(OCc2ccc(C(C)(C)C)cc2)c1 [Example 31, N-[2-[3-(4-t-Butylbenzyloxy)benzamido]benzenesulfonyl]decanamide] | 66.4 | 132 to 133 | 67.6
12 | CCCCCC(=O)NS(=O)(=O)c1ccccc1NC(=O)c1cccc(OCc2ccc(C(F)(F)F)cc2)c1 [Example 33, N-[2-[3-(4-Trifluoromethylbenzyloxy)benzamido]benzenesulfonyl]hexanamide] | 97.5 | 142 to 143 | 52.3
13 | CCCCCCCCCC(=O)NS(=O)(=O)c1ccccc1NC(=O)c1cccc(OCc2ccc(C(F)(F)F)cc2)c1 [Example 34, N-[2-[3-(4-Trifluoromethylbenzyloxy)benzamido]benzenesulfonyl]decanamide] | 87.7 | 164 | 81.3
14 | CCCCCCCCCC(=O)NS(=O)(=O)c1ccccc1NC(=O)c1cccc(OCCCCCCC)c1 [Example 37, N-[2-(3-Heptyloxybenzamido]benzenesulfonyl]decanamide] | 64.3 | 172 to 174 | 83.6
15 | CCCCCCCCCC(=O)NS(=O)(=O)c1ccccc1NC(=O)c1ccc(C#Cc2ccccc2)cc1 [Example 40, N-[2-(4-Phenylethynylbenzamido)benzenesulfonyl]decanamide] | 57.4 | 155 to 156 | 76
16 | C/C=C/C=C/C(=O)NS(=O)(=O)c1ccccc1NC(=O)c1ccc(C#Cc2ccccc2)cc1 [Example 43, trans-N-[2-(4-Phenylethynylbenzamido)benzenesulfonyl]-2,4-hexadienamide] | 92.3 | 208 to 209 | 54.3
